In the NIST ThermoML archive (doi:10.1016/j.tca.2013.06.031):

Assay: mn = molality of the nth substance listed, in mol/kg
Conditions: 101 kPa, Liquid; for viscosity: Capillary tube (Ostwald / Ubbelohde) method; for mass density: Vibrating tube method

CO/N=C(\C(=O)N[C@@H]1C(=O)N2C(C(=O)[O-])=C(CSc3nc(C)c(CC(=O)[O-])s3)CS[C@H]12)c1csc(N)n1.[Na+].[Na+] + O
Conditions | mass density [kg/m3] | viscosity [mPa·s]
278.15 K, m1 = 0.01 | 1002.35 | 1.551
278.15 K, m1 = 0.03 | 1006.68 | 1.609
278.15 K, m1 = 0.05 | 1010.63 | 1.667
278.15 K, m1 = 0.07 | 1014.39 | 1.724
278.15 K, m1 = 0.09 | 1018.03 | 1.783
278.15 K, m1 = 0.11 | 1021.6 | 1.839
278.15 K, m1 = 0.13 | 1025.13 | 1.9
278.15 K, m1 = 0.15 | 1028.54 | 1.962
283.15 K, m1 = 0.01 | 1002.07 | 1.33
283.15 K, m1 = 0.03 | 1006.36 | 1.381
283.15 K, m1 = 0.05 | 1010.27 | 1.431
283.15 K, m1 = 0.07 | 1014 | 1.479
283.15 K, m1 = 0.09 | 1017.61 | 1.529
283.15 K, m1 = 0.11 | 1021.14 | 1.577
283.15 K, m1 = 0.13 | 1024.59 | 1.63
283.15 K, m1 = 0.15 | 1027.97 | 1.682
288.15 K, m1 = 0.01 | 1001.45 | 1.153
288.15 K, m1 = 0.03 | 1005.68 | 1.197
288.15 K, m1 = 0.05 | 1009.58 | 1.24
288.15 K, m1 = 0.07 | 1013.27 | 1.282
288.15 K, m1 = 0.09 | 1016.85 | 1.326
288.15 K, m1 = 0.11 | 1020.33 | 1.367
288.15 K, m1 = 0.13 | 1023.74 | 1.413
288.15 K, m1 = 0.15 | 1027.06 | 1.458
293.15 K, m1 = 0.01 | 1000.53 | 1.016
293.15 K, m1 = 0.03 | 1004.71 | 1.055
293.15 K, m1 = 0.05 | 1008.6 | 1.094
293.15 K, m1 = 0.07 | 1012.24 | 1.13
293.15 K, m1 = 0.09 | 1015.8 | 1.169
293.15 K, m1 = 0.11 | 1019.24 | 1.206
293.15 K, m1 = 0.13 | 1022.59 | 1.246
293.15 K, m1 = 0.15 | 1025.89 | 1.285
298.15 K, m1 = 0.01 | 999.36 | 0.9017
298.15 K, m1 = 0.03 | 1003.52 | 0.9359
298.15 K, m1 = 0.05 | 1007.36 | 0.9694
298.15 K, m1 = 0.07 | 1010.99 | 1.002
298.15 K, m1 = 0.09 | 1014.51 | 1.036
298.15 K, m1 = 0.11 | 1017.91 | 1.069
298.15 K, m1 = 0.13 | 1021.27 | 1.104
298.15 K, m1 = 0.15 | 1024.52 | 1.14
303.15 K, m1 = 0.01 | 997.94 | 0.8062
303.15 K, m1 = 0.03 | 1002.05 | 0.8369
303.15 K, m1 = 0.05 | 1005.88 | 0.8669
303.15 K, m1 = 0.07 | 1009.48 | 0.8964
303.15 K, m1 = 0.09 | 1012.96 | 0.9263
303.15 K, m1 = 0.11 | 1016.34 | 0.9559
303.15 K, m1 = 0.13 | 1019.64 | 0.9862
303.15 K, m1 = 0.15 | 1022.89 | 1.019
308.15 K, m1 = 0.01 | 996.31 | 0.7252
308.15 K, m1 = 0.03 | 1000.43 | 0.7532
308.15 K, m1 = 0.05 | 1004.18 | 0.7799
308.15 K, m1 = 0.07 | 1007.75 | 0.8066
308.15 K, m1 = 0.09 | 1011.2 | 0.8336
308.15 K, m1 = 0.11 | 1014.55 | 0.8594
308.15 K, m1 = 0.13 | 1017.85 | 0.8867
308.15 K, m1 = 0.15 | 1021.04 | 0.9172
313.15 K, m1 = 0.01 | 994.47 | 0.6576
313.15 K, m1 = 0.03 | 998.57 | 0.682
313.15 K, m1 = 0.05 | 1002.27 | 0.707
313.15 K, m1 = 0.07 | 1005.83 | 0.7314
313.15 K, m1 = 0.09 | 1009.24 | 0.7559
313.15 K, m1 = 0.11 | 1012.57 | 0.7783
313.15 K, m1 = 0.13 | 1015.83 | 0.8042
313.15 K, m1 = 0.15 | 1018.99 | 0.8303
